Results taken from US6737383B1, “Herbicidal oxadiazolidines” (priority 1999, dated 2004).

Key:
[1] = system: bedstraw; test: Test B pre/postemergence bedstraw; assay type: in vivo, Galium aparine
In short: (§1)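 Herbicidal effect was estimated by eye on a ten-point control scale after plants spent twelve to sixteen days in a greenhouse following soil or foliar treatment. Foliar sprays targeted plants at one to four leaves; all doses were formulated in a non-phytotoxic solvent with surfactant.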

[2] = system: blackgrass; test: Test B pre/postemergence blackgrass; assay type: in vivo, Alopecurus myosuroides
In short: as §1

[3] = system: surinam grass; test: Test B pre/postemergence surinam grass; assay type: in vivo, Brachiaria decumbens
In short: as §1

[4] = system: cocklebur; test: Test B pre/postemergence cocklebur; assay type: in vivo, Xanthium strumarium
In short: as §1

[5] = system: corn; test: Test B pre/postemergence corn; assay type: in vivo, Zea mays
In short: as §1

[6] = system: crabgrass; test: Test B pre/postemergence crabgrass; assay type: in vivo, Digitaria sanguinalis
In short: as §1

[7] = system: giant foxtail; test: Test B pre/postemergence giant foxtail; assay type: in vivo, Setaria faberii
In short: as §1

[8] = system: morningglory; test: Test B pre/postemergence morningglory; assay type: in vivo, Ipomoea hederacea
In short: as §1

[9] = system: pigweed; test: Test B pre/postemergence pigweed; assay type: in vivo, Amaranthus retroflexus
In short: as §1

[10] = system: rape; test: Test B pre/postemergence rape; assay type: in vivo, Brassica napus
In short: as §1

[11] = system: soybean; test: Test B pre/postemergence soybean; assay type: in vivo, Glycine max
In short: as §1

[12] = system: sugar beet; test: Test B pre/postemergence sugar beet; assay type: in vivo, Beta vulgaris
In short: as §1

[13] = system: velvetleaf; test: Test B pre/postemergence velvetleaf; assay type: in vivo, Abutilon theophrasti
In short: as §1

[14] = system: wheat; test: Test B pre/postemergence wheat; assay type: in vivo, Triticum aestivum
In short: as §1

[15] = system: wild oat; test: Test B pre/postemergence wild oat; assay type: in vivo, Avena fatua
In short: as §1

[16] = system: purple nutsedge; test: Test B pre/postemergence purple nutsedge; assay type: in vivo, Cyperus rotundus
In short: as §1

[17] = Postemergence, Rate 62 g/ha, scale of 0 to 10, 0 is no effect, 10 is complete control
[18] = Postemergence, Rate 125 g/ha, scale 0 to 10, 0 is no effect, 10 is complete control
[19] = Preemergence, Rate 62 g/ha, scale of 0 to 10 where 0 is no effect and 10 is complete control
[20] = Preemergence, Rate 125 g/ha, scale 0 to 10, 0 is no effect, 10 is complete control
[21] = Preemergence, Rate 500 g/ha, scale 0 to 10, 0 is no effect, 10 is complete control
[22] = Postemergence, Rate 500 g/ha, scale 0 to 10, 0 is no effect, 10 is complete control
[23] = Preemergence, Rate 500 g/ha, scale of 0 to 10 where 0 is no effect and 10 is complete control
[24] = Rate 250 g/ha, Postemergence, scale of 0 to 10 where 0 is no effect and 10 is complete control
[25] = Preemergence, Rate 125 g/ha, scale of 0 to 10 where 0 is no effect and 10 is complete control
[26] = Preemergence, Rate 250 g/ha, scale 0 (no effect) to 10 (complete control)

CCC=CCn1c(=O)on(C(=O)N(c2ccc(F)cc2F)C(C)C)c1=O [Compound 523]
10: Plant response rating, Crabgrass [6, 22] | Crabgrass plant response rating [6, 20] | Crabgrass plant response rating (0 to 10 scale) ([6]; Preemergence, Rate 250 g/ha) | Crabgrass plant response rating [6, 23] | Plant response rating, Giant foxtail [7, 19] | Giant foxtail plant response rating [7, 20] | Giant foxtail plant response rating (0 to 10 scale) ([7]; Preemergence, Rate 250 g/ha) | Giant foxtail plant response rating [7, 23]
8: B. signalgrass plant response rating [3, 20] | Crabgrass plant response rating [6, 18]
4: Plant response rating, Blackgrass [2, 22] | Blackgrass plant response rating [2, 20] | Plant response rating, B. signalgrass [3, 19] | Plant response rating, Giant foxtail [7, 24] | Plant response rating, Morningglory [8, 22] | Morningglory plant response rating [8, 20] | Plant response rating, Morningglory [8, 24] | Rape plant response rating (0 to 10 scale) ([10]; Preemergence, Rate 250 g/ha) | Soybean plant response rating [11, 17] | Sugarbeets plant response rating [12, 20] | Plant response rating, Velvetleaf [13, 22] | Wheat plant response rating [14, 23]
5: B. signalgrass plant response rating [3, 21] | Soybean plant response rating [11, 18] | Plant response rating, Soybean [11, 22] | Plant response rating, Soybean [11, 24] | Velvetleaf plant response rating [13, 23]
3: Plant response rating, Blackgrass [2, 24] | Crabgrass plant response rating [6, 17] | Morningglory plant response rating [8, 18] | Plant response rating, Redroot pigweed [9, 22] | Plant response rating, Redroot pigweed [9, 24] | Plant response rating, Sugarbeets [12, 19] | Velvetleaf plant response rating [13, 18] | Plant response rating, Velvetleaf [13, 24]
6: Plant response rating, Crabgrass [6, 24] | Plant response rating, Giant foxtail [7, 22]
0: Bedstraw plant response rating [1, 17] | Bedstraw plant response rating [1, 18] | Plant response rating, Bedstraw [1, 19] | Bedstraw plant response rating [1, 20] | Bedstraw plant response rating (0 to 10 scale) ([1]; Preemergence, Rate 250 g/ha) | Bedstraw plant response rating [1, 21] | Blackgrass plant response rating [2, 17] | Blackgrass plant response rating [2, 18] | B. signalgrass plant response rating [3, 17] | B. signalgrass plant response rating [3, 18] | Cocklebur plant response rating [4, 17] | Plant response rating, Cocklebur [4, 19] | Cocklebur plant response rating [4, 20] | Cocklebur plant response rating (0 to 10 scale) ([4]; Preemergence, Rate 250 g/ha) | Cocklebur plant response rating [4, 23] | Corn plant response rating [5, 17] | Corn plant response rating [5, 18] | Plant response rating, Corn [5, 19] | Corn plant response rating [5, 20] | Corn plant response rating (0 to 10 scale) ([5]; Preemergence, Rate 250 g/ha) | Morningglory plant response rating (0 to 10 scale) ([8]; Preemergence, Rate 250 g/ha) | Morningglory plant response rating [8, 23] | Redroot pigweed plant response rating [9, 17] | Rape plant response rating [10, 17] | Rape plant response rating [10, 18] | Plant response rating, Rape [10, 19] | Rape plant response rating [10, 20] | Plant response rating, Soybean [11, 19] | Soybean plant response rating [11, 20] | Soybean plant response rating (0 to 10 scale) ([11]; Preemergence, Rate 250 g/ha) | Soybean plant response rating [11, 23] | Sugarbeets plant response rating [12, 17] | Sugarbeets plant response rating [12, 18] | Plant response rating, Sugarbeets [12, 22] | Plant response rating, Sugarbeets [12, 24] | Velvetleaf plant response rating [13, 17] | Plant response rating, Velvetleaf [13, 19] | Wheat plant response rating [14, 17] | Wheat plant response rating [14, 18] | Plant response rating, Wheat [14, 19] | Wheat plant response rating [14, 20] | Wheat plant response rating (0 to 10 scale) ([14]; Preemergence, Rate 250 g/ha) | Plant response rating, Wheat [14, 24] | Wild oats plant response rating [15, 17] | Wild oats plant response rating [15, 18] | Plant response rating, Wild oats [15, 19] | Wild oats plant response rating [15, 20] | Wild oats plant response rating (0 to 10 scale) ([15]; Preemergence, Rate 250 g/ha) | Wild oats plant response rating [15, 23] | Plant response rating, Wild oats [15, 24] | Nutsedge plant response rating [16, 17] | Nutsedge plant response rating [16, 18] | Plant response rating, Nutsedge [16, 22] | Plant response rating, Nutsedge [16, 19] | Nutsedge plant response rating [16, 20] | Nutsedge plant response rating (0 to 10 scale) ([16]; Preemergence, Rate 250 g/ha) | Nutsedge plant response rating [16, 23] | Plant response rating, Nutsedge [16, 24]
9: B. signalgrass plant response rating (0 to 10 scale, 0 is no effect, 10 is complete control) ([3]; Preemergence, Rate 250 g/ha) | Corn plant response rating [5, 23] | Plant response rating, Crabgrass [6, 19] | Redroot pigweed plant response rating [9, 20] | Redroot pigweed plant response rating (0 to 10 scale) ([9]; Preemergence, Rate 250 g/ha) | Redroot pigweed plant response rating [9, 23] | Sugarbeets plant response rating [12, 23]
7: Blackgrass plant response rating (0 to 10 scale) ([2]; Preemergence, Rate 250 g/ha) | Blackgrass plant response rating [2, 23] | Plant response rating, B. signalgrass [3, 22] | Rape plant response rating [10, 23] | Sugarbeets plant response rating (0 to 10 scale) ([12]; Preemergence, Rate 250 g/ha)
2: Plant response rating, Blackgrass [2, 19] | Plant response rating, B. signalgrass [3, 24] | Cocklebur plant response rating [4, 18] | Plant response rating, Cocklebur [4, 22] | Plant response rating, Cocklebur [4, 24] | Plant response rating, Corn [5, 22] | Plant response rating, Corn [5, 24] | Giant foxtail plant response rating [7, 17] | Giant foxtail plant response rating [7, 18] | Morningglory plant response rating [8, 17] | Plant response rating, Morningglory [8, 19] | Redroot pigweed plant response rating [9, 18] | Plant response rating, Redroot pigweed [9, 19] | Plant response rating, Rape [10, 22] | Plant response rating, Rape [10, 24] | Velvetleaf plant response rating [13, 20] | Velvetleaf plant response rating (0 to 10 scale) ([13]; Preemergence, Rate 250 g/ha) | Plant response rating, Wheat [14, 22] | Plant response rating, Wild oats [15, 22]

CC(C)N(C(=O)n1oc(=O)n(C(CF)CCl)c1=O)c1ccc(F)cc1 (racemic) [Compound 707]
7: Bedstraw plant response rating [1, 19] | Plant response rating, Bedstraw [1, 25] | Plant response rating, B. signalgrass [3, 25]
8: Rape plant response rating [10, 19] | Plant response rating, Rape [10, 25] | Sugarbeets plant response rating [12, 26] | Wild oats plant response rating [15, 19] | Plant response rating, Wild oats [15, 25]
3: Morningglory plant response rating [8, 19] | Plant response rating, Morningglory [8, 25] | Velvetleaf plant response rating [13, 19]
10: Bedstraw plant response rating [1, 26] | Plant response rating, Bedstraw [1, 23] | Plant response rating, Blackgrass [2, 25] | Blackgrass plant response rating [2, 26] | Plant response rating, Blackgrass [2, 23] | Plant response rating, B. signalgrass [3, 23] | Plant response rating, Giant foxtail [7, 25] | Giant foxtail plant response rating [7, 26] | Plant response rating, Redroot pigweed [9, 25] | Redroot pigweed plant response rating [9, 26] | Rape plant response rating [10, 26]
2: Corn plant response rating [5, 26] | Wheat plant response rating [14, 19] | Plant response rating, Wheat [14, 25] | Wheat plant response rating [14, 26]
0: Cocklebur plant response rating [4, 19] | Plant response rating, Cocklebur [4, 25] | Cocklebur plant response rating [4, 26] | Plant response rating, Cocklebur [4, 23] | Corn plant response rating [5, 19] | Plant response rating, Corn [5, 25] | Soybean plant response rating [11, 19] | Plant response rating, Soybean [11, 25] | Soybean plant response rating [11, 26] | Nutsedge plant response rating [16, 19] | Plant response rating, Nutsedge [16, 25] | Nutsedge plant response rating [16, 26]
5: Crabgrass plant response rating [6, 19] | Plant response rating, Velvetleaf [13, 25] | Velvetleaf plant response rating [13, 26]
9: Blackgrass plant response rating [2, 19] | B. signalgrass plant response rating [3, 26] | Plant response rating, Crabgrass [6, 25] | Crabgrass plant response rating [6, 26] | Wild oats plant response rating [15, 26]
6: B. signalgrass plant response rating [3, 19] | Giant foxtail plant response rating [7, 19] | Sugarbeets plant response rating [12, 19] | Plant response rating, Sugarbeets [12, 25]
4: Morningglory plant response rating [8, 26]
